Experimental data published in PMC12486805, “Preclinical evaluation of tridecaptin M: in vitro and in vivo efficacy against colistin-resistant Gram-negative bacterial pathogens and pharmacokinetics” (Antimicrobial Agents and Chemotherapy, 2025).

What was measured:
[1] = test system: K. pneumoniae ATCC 700603; experiment: Peritonitis infection model for intravenous efficacy in Balb/c mice; type: in vivo, Klebsiella pneumoniae; conditions: single i.v. dose 5 mg/kg, 4 h post-infection
Experimental: Balb/c mice (n = 6), 8-10 weeks old, are rendered neutropenic with cyclophosphamide as in previous experiments. A bacterial load of K. pneumoniae ATCC 700603 standard strain corresponding to ≈10^7 CFU/mL was used, and 100 μL was administered intraperitoneally to cause multi-organ infection conditions. At 4 h, the pre-treatment group was euthanized, and the right kidney of each mouse was harvested, homogenized, serially diluted, and spotted on MHA plates to determine bacterial CFU count per kidney. Simultaneously, at 4 h, the remaining groups were administered 5 mg/kg colistin, 5 mg/kg tridecaptin M, 10 mg/kg tridecaptin M, and vehicle control (PBS); 24 h after treatment, the remaining groups were euthanized, and the CFU count in the right kidney was determined the same as the 4 h pre-treatment group.

[2] = Intravenous acute toxicity in mice; type: in vivo, Balb/c mice; conditions: 18 mg/kg i.v.
Experimental: In total, 8–10 week old female Balb/c mice (n = 3) were administered tridecaptin M starting at 15 mg/kg, 25 mg/kg, 50 mg/kg, and 100 mg/kg. […] In this study, we administered 18 mg/kg of colistin to mice intravenously. […] Later, in the second set, intermediate concentrations of 20 mg/kg, 25 mg/kg, 30 mg/kg, 35 mg/kg, and 40 mg/kg doses were also administered to n = 4 mice. In these groups, blood was collected at 24 h post administration or immediately after visible movement stopped (40 mg/kg group), serum was separated and pooled together for each group n = 4, and biochemical serum tests were conducted.

[3] = test system: K. pneumoniae; type: cell-based, Klebsiella pneumoniae
Experimental: (§1) The MIC for all isolates was determined using the broth microdilution method. This involved preparing CA-MHB medium and serially diluting antibiotic solutions by a factor of two. The test organism was adjusted to a concentration of ≈5 × 10^5 CFU/mL. In a sterile 96-well microtiter plate, 100 µL of CA-MHB, along with 100 µL of each antibiotic, was added, and serial dilutions were made. A 100 µL suspension of the organism was added to each well and mixed, resulting in a total reaction volume of 200 µL per well. The plate was then incubated at 37°C for 16–18 h. The MIC was identified as the lowest concentration of antibiotic that prevented any visible growth of the organism ([16]).

[4] = test system: K. pneumoniae AH-16; experiment: Mucin peritonitis survival model in BALB/c mice; type: in vivo, Klebsiella pneumoniae; conditions: 5 mg/kg s.c., three doses at 2, 12, 24 h post-infection
Experimental: The survival study was performed by following a method described earlier, with some modifications; 8–10 week old, female BALB/c mice, 10 mice in each group, were infected with 100μL (OD600nm = 1) of K. pneumoniae AH-16 bacterial suspension prepared in porcine mucin 5% via intraperitoneal injection. Mice were injected subcutaneously with tridecaptin M (10 mg/kg) and colistin (5 mg/kg). The treatment was given in three doses at 2 h, 12 h, and 24 h post-infection to ensure a 15 mg/kg/day maximum dose limit for colistin. The survival or death of mice was monitored and recorded every 12 h for 7 days ([41]).

[5] = test system: E. coli; type: cell-based, Escherichia coli
Experimental: as §1

[6] = cited from earlier work
[7] = molecular target: CYP2D6 (Homo sapiens, UniProt P10635); experiment: CYP inhibition assay, recombinant isoform, fluorescence; type: biochemical; conditions: human, recombinant CYP2D6
Sequence of CYP2D6 (P10635 whole entry, canonical isoform): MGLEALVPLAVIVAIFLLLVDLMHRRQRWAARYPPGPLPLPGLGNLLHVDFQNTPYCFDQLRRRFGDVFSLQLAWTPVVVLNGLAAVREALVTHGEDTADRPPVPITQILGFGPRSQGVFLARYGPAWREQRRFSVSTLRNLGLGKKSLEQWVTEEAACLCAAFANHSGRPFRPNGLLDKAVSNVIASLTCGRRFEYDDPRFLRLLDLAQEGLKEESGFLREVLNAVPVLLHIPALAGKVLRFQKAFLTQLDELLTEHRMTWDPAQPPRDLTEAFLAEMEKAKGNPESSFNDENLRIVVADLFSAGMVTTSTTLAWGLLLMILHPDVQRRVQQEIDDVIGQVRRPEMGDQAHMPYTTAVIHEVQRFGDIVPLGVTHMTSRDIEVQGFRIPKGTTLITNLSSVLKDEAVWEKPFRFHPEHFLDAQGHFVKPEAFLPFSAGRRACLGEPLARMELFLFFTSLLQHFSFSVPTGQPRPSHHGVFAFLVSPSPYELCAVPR
Experimental: (§2) The CYP inhibition assay was performed for test/control inhibitor items in duplicates using a 96-well fluorescence plate. An example of the preparation of CYP inhibition is given below in Table 8.
(§3) The plate with CYP master premix with test/control was incubated to allow the test/control samples to interact with CYP enzyme for 10 ± 1 min at 25°C under shaking conditions (400 rpm) using Thermomixer. The assay was initiated by adding 10 µL of a substrate and NADP^+ mixture to all wells, including a vehicle control and an assay blank. […] After incubation, the reaction was quenched by adding 50 µL of stop reagent (0.5 M Tris base) to each well.

[8] = in vitro; conditions: human, liver microsomes, pH 7.4
[9] = in vitro; conditions: mouse, liver microsomes, pH 7.4
[10] = in vitro; conditions: rat, liver microsomes, pH 7.4
[11] = molecular target: T1, CYP1A2 (Homo sapiens, UniProt P05177); experiment: in vitro; type: biochemical; conditions: human, % inhibition CYP 1A2
T1 sequence (P05177 1-516): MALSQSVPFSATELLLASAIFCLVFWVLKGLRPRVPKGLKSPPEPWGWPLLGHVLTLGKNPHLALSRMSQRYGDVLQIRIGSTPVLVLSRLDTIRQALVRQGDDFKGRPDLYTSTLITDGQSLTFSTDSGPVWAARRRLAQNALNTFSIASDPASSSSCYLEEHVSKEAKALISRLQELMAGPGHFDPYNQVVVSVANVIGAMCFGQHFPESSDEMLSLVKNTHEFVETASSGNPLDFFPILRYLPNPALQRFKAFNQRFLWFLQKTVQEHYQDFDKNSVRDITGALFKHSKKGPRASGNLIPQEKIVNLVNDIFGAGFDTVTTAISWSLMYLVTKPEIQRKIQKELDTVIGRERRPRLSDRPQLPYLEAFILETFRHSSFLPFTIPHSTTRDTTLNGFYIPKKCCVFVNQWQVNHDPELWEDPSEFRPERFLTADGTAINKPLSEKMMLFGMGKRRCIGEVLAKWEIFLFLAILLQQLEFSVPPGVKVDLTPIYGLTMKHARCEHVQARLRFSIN
Experimental: as §2, §3

[12] = molecular target: CYP2C9 (Homo sapiens, UniProt P11712); experiment: CYP inhibition assay, recombinant isoform, fluorescence; type: biochemical; conditions: human, read-out: % inhibition CYP 2C9
Sequence of CYP2C9 (P11712 whole entry, canonical isoform): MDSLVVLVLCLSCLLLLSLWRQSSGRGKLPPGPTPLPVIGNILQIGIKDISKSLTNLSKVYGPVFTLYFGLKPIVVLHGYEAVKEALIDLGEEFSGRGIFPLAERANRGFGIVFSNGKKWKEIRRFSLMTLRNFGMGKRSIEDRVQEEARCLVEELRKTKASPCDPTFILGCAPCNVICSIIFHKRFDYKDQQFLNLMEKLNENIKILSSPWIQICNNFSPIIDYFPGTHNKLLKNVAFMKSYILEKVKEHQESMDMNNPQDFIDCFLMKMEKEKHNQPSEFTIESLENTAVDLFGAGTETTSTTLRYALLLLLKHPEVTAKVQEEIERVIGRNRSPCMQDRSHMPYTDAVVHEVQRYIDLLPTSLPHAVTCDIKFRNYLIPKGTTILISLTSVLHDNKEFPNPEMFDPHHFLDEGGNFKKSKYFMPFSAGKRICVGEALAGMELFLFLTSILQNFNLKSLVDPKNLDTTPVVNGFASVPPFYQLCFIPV
Experimental: as §2
The plate with CYP master premix with test/control was incubated to allow the test/control samples to interact with CYP enzyme for 10 ± 1 min at 25°C under shaking conditions (400 rpm) using Thermomixer. The assay was initiated by adding 10 µL of a substrate and NADP^+ mixture to all wells, including a vehicle control and an assay blank. The plate was then incubated at 25°C for 25 min with shaking at 400 rpm using a thermomixer. After incubation, the reaction was quenched by adding 50 µL of stop reagent (0.5 M Tris base) to each well. Fluorescence was measured using a microplate reader at excitation/emission wavelengths of 415/460 nm, respectively ([37]).

colistin [reference compound]
efficacy (CFU/kidney) compared with tridecaptin M [1]: superior performance | outcome of i.v. administration [2]: immediately lethal | MIC range ([3]; Col-S (colistin sensitive) clinical isolates (72)): 0.25 to 2 µg/mL | MIC ([3]; Std. QC strain ATCC 700603): 0.5 µg/mL | survival at the end of 7 days [4]: 40% | MIC range ([5]; Col-S clinical isolates (52)): 0.25 to 1 µg/mL | MIC ([5]; Std. QC strain ATCC 25922): 0.25 µg/mL | subcutaneous dose known to be lethal to mice [6]: exceeding 36 mg/kg | mortality in acute toxicity study ([6]; colistin group of the same study): all mice in the colistin group died within 24 h

C=C[C@H]1C[N@@]2CC[C@H]1C[C@@H]2[C@@H](O)c1ccnc2ccc(OC)cc12 [Quinidine, reference compound]
inhibition at 25 min, 0.003 µM [7]: 52.4% | inhibition at 25 min, 0.0003 µM ([7]; 0.0003 µM, read-out: % inhibition CYP 2D6): < 0% | inhibition at 25 min, 0.001 µM ([7]; 0.001 µM, read-out: % inhibition CYP 2D6): 14% | inhibition at 25 min, 0.01 µM ([7]; 0.01 µM, read-out: % inhibition CYP 2D6): 88.6% | inhibition at 25 min, 0.03 µM ([7]; 0.03 µM, read-out: % inhibition CYP 2D6): 92.6% | inhibition at 25 min, 0.1 µM ([7]; 0.1 µM, read-out: % inhibition CYP 2D6): 93.4% | inhibition at 25 min, 0.3 µM ([7]; 0.3 µM, read-out: % inhibition CYP 2D6): 92.5% | inhibition at 25 min, 1 µM ([7]; 1 µM, read-out: % inhibition CYP 2D6): 95.7%

O=C(O)Cc1ccccc1Nc1c(Cl)cccc1Cl [Diclofenac, reference compound]
half-life [8]: 0.327 h | microsomal CLint [8]: 70.6 µL/min/mg | remaining at 0.25 h [8]: 53.2% | remaining at 0.5 h [8]: 36.5% | remaining at 1 h [8]: 11.6% | remaining at 2 h [8]: 8.3% | half-life [9]: 1.54 h | microsomal CLint [9]: 15 µL/min/mg | remaining at 0.5 h [9]: 77.7% | remaining at 1 h [9]: 58.7% | remaining at 2 h [9]: 40.1% | half-life [10]: > 2 h | microsomal CLint [10]: < 11.6 µL/min/mg | remaining at 0.25 h [10]: 102% | remaining at 0.5 h [10]: 88.6% | remaining at 1 h [10]: 67.2% | remaining at 2 h [10]: 64.5%

Cc1nc2c([nH]1)c(=O)n(C)c(=O)n2Cc1ccco1 [Furafylline, reference compound]
inhibition at 25 min, 0.01 µM [11]: < 0% | inhibition at 25 min, 0.03 µM [11]: < 0% | inhibition at 25 min, 0.1 µM [11]: < 0% | inhibition at 25 min, 0.3 µM [11]: 9.3% | inhibition at 25 min, 1 µM [11]: 45.3% | inhibition at 25 min, 3 µM [11]: 67.7% | inhibition at 25 min, 10 µM [11]: 90.8%

Nc1ccc(S(=O)(=O)Nc2ccnn2-c2ccccc2)cc1 [Sulfaphenazole, reference compound]
inhibition at 25 min, 0.001 µM ([12]; 0.001 µM): < 0% | inhibition at 25 min, 0.003 µM ([12]; 0.003 µM): 3.42% | inhibition at 25 min, 0.01 µM ([12]; 0.01 µM): 11.3% | inhibition at 25 min, 0.03 µM ([12]; 0.03 µM): 27.2% | inhibition at 25 min, 0.1 µM ([12]; 0.1 µM): 34.7% | inhibition at 25 min, 0.3 µM ([12]; 0.3 µM): 45.2% | inhibition at 25 min, 1 µM ([12]; 1 µM): 53.5% | inhibition at 25 min, 3 µM ([12]; 3 µM): 57.9%
